The text below walks through data of ChEMBL document CHEMBL3232946, “Development of 3,5-dinitrobenzoate-based 5-lipoxygenase inhibitors” (Bioorg Med Chem, 2014).

Molecules are shown by their SMILES.

The first test concerns the target T1, Polyunsaturated fatty acid 5-lipoxygenase (Homo sapiens, UniProt P09917).
T1 sequence (P09917 whole entry): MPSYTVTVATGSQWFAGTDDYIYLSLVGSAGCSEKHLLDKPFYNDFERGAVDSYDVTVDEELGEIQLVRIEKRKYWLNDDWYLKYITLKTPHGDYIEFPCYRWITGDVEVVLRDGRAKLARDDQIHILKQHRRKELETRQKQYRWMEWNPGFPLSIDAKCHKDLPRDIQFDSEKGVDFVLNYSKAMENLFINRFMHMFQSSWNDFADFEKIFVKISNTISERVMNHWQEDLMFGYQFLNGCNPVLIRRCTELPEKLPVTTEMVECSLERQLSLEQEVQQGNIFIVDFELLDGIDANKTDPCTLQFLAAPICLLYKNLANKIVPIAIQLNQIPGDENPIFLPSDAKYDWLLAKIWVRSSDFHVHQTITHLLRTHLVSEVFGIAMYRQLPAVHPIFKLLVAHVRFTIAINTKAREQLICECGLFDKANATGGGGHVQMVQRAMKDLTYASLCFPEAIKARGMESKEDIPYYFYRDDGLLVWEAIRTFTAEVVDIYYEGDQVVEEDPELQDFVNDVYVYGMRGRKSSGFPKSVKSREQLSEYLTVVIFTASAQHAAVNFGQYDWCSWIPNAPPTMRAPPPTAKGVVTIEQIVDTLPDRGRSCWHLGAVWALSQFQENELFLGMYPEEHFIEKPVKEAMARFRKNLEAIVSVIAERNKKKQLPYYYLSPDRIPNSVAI
Briefly: Inhibition of human 5-LOX using arachidonic acid as substrate preincubated for 10 mins followed by substrate addition by H2DCFDA staining-based fluorometric analysis.
Regarding `O=C(Oc1cccc2ccccc12)c1cc([N+](=O)[O-])cc([N+](=O)[O-])c1`, the 50% inhibitory concentration (IC50) amounted to 1 µM.

On to `Cc1cccc(OC(=O)c2cc([N+](=O)[O-])cc([N+](=O)[O-])c2)c1`, for which the midpoint of inhibition, the IC50, lay at 0.006 µM.

Take `O=C(Oc1ccccc1)c1cc([N+](=O)[O-])cc([N+](=O)[O-])c1`: the half-inhibitory concentration (IC50) turned out to be 1.6 µM.

Molecule `CCCc1cccc(OC(=O)c2cc([N+](=O)[O-])cc([N+](=O)[O-])c2)c1` had a half-inhibitory concentration (IC50) of 7.4 µM.

`O=C(Oc1cccc(Cl)c1Cl)c1cc([N+](=O)[O-])cc([N+](=O)[O-])c1`: the IC50 is > 50 µM.

`O=C(Oc1cccc(-c2ccccc2)c1)c1cc([N+](=O)[O-])cc([N+](=O)[O-])c1`: the half-maximal inhibitory concentration (IC50) amounted to 8.7 µM.

As for `O=C(Oc1ccc(-c2ccccc2)cc1)c1cc([N+](=O)[O-])cc([N+](=O)[O-])c1`, the IC50 was > 50 µM.

With `O=C(Oc1cccc2ccccc12)c1cccc([N+](=O)[O-])c1`, the midpoint of inhibition, the IC50, lay at 7.1 µM.

In the case of `O=C(Nc1cccc2ccccc12)c1cc([N+](=O)[O-])cc([N+](=O)[O-])c1`, the concentration for half-maximal inhibition (IC50) stood at 0.004 µM.

`O=C(Nc1ccccc1)c1cc([N+](=O)[O-])cc([N+](=O)[O-])c1` displayed an IC50 of 1.8 µM.

The molecule `Cc1cccc(NC(=O)c2cc([N+](=O)[O-])cc([N+](=O)[O-])c2)c1` gave a half-maximal inhibitory concentration (IC50) of 0.01 µM.

`O=C(Nc1cccc(Cl)c1)c1cc([N+](=O)[O-])cc([N+](=O)[O-])c1` registered an IC50 of 0.033 µM.

Regarding `O=C(Nc1cccc(Br)c1)c1cc([N+](=O)[O-])cc([N+](=O)[O-])c1`, the IC50 was > 50 µM.

The molecule `COc1ccc(NC(=O)c2cc([N+](=O)[O-])cc([N+](=O)[O-])c2)cc1` showed a concentration for half-maximal inhibition (IC50) of 0.034 µM.

For the molecule `COc1ccc(NC(=O)c2cc([N+](=O)[O-])cc([N+](=O)[O-])c2)cc1OC`, the IC50 stood at 1.1 µM.

Molecule `O=C(NCc1cccc(Br)c1)c1cc([N+](=O)[O-])cc([N+](=O)[O-])c1` gave an IC50 of 83.6 µM.

In turn, `O=C(Nc1cccc(-c2ccccc2)c1)c1cc([N+](=O)[O-])cc([N+](=O)[O-])c1` showed a half-inhibitory concentration (IC50) of 0.03 µM.

On to `O=C(O)c1cccc(C(=O)OCc2ccccc2)c1`, for which the concentration for half-maximal inhibition (IC50) was > 50 µM.

Regarding `O=C(O)c1cccc(C(=O)Oc2cccc3ccccc23)c1`, the concentration for half-maximal inhibition (IC50) is > 50 µM.

Regarding `O=C(O)c1cccc(C(=O)Nc2cccc3ccccc23)c1`, the IC50 was > 50 µM.

In the case of `O=C(O)c1cccc(C(=O)Nc2ccccc2)c1`, the half-inhibitory concentration (IC50) was > 50 µM.

A further test concerns the target T1, Polyunsaturated fatty acid 5-lipoxygenase. The test is described as follows: Inhibition of 5-LOX in human whole blood assessed as inhibition of A23187-induced LTB4 production preincubated for 15 mins followed by A23187 induction measured after 30 mins by ELISA.
As for `Cc1cccc(OC(=O)c2cc([N+](=O)[O-])cc([N+](=O)[O-])c2)c1`, the IC50 stood at 0.5 µM.

In the case of `O=C(Oc1ccccc1)c1cc([N+](=O)[O-])cc([N+](=O)[O-])c1`, the half-inhibitory concentration (IC50) amounted to 15.8 µM.

Consider `CCCc1cccc(OC(=O)c2cc([N+](=O)[O-])cc([N+](=O)[O-])c2)c1`, for which the half-inhibitory concentration (IC50) came to 6.5 µM.

On to `O=C(Oc1cccc(Cl)c1Cl)c1cc([N+](=O)[O-])cc([N+](=O)[O-])c1`, for which the IC50 is > 50 µM.

As to `O=C(Oc1cccc(-c2ccccc2)c1)c1cc([N+](=O)[O-])cc([N+](=O)[O-])c1`, the half-maximal inhibitory concentration (IC50) was determined as 38 µM.

For `O=C(Oc1ccc(-c2ccccc2)cc1)c1cc([N+](=O)[O-])cc([N+](=O)[O-])c1`, the half-inhibitory concentration (IC50) was > 50 µM.

As for `O=C(Oc1cccc2ccccc12)c1cccc([N+](=O)[O-])c1`, the IC50 was 24.6 µM.

In the case of `O=C(Nc1cccc2ccccc12)c1cc([N+](=O)[O-])cc([N+](=O)[O-])c1`, the half-maximal inhibitory concentration (IC50) is > 50 µM.

On to `O=C(Nc1ccccc1)c1cc([N+](=O)[O-])cc([N+](=O)[O-])c1`, for which the IC50 came out at 15.2 µM.

For the molecule `Cc1cccc(NC(=O)c2cc([N+](=O)[O-])cc([N+](=O)[O-])c2)c1`, the IC50 was > 50 µM.

Consider `O=C(Nc1cccc(Cl)c1)c1cc([N+](=O)[O-])cc([N+](=O)[O-])c1`, for which the IC50 was > 50 µM.

On to `O=C(Nc1cccc(Br)c1)c1cc([N+](=O)[O-])cc([N+](=O)[O-])c1`, for which the IC50 is > 50 µM.

For the molecule `COc1ccc(NC(=O)c2cc([N+](=O)[O-])cc([N+](=O)[O-])c2)cc1`, the IC50 came out at 2.7 µM.

As for `COc1ccc(NC(=O)c2cc([N+](=O)[O-])cc([N+](=O)[O-])c2)cc1OC`, the concentration for half-maximal inhibition (IC50) is > 50 µM.

On to `O=C(NCc1cccc(Br)c1)c1cc([N+](=O)[O-])cc([N+](=O)[O-])c1`, for which the IC50 is 14.4 µM.

`O=C(Nc1cccc(-c2ccccc2)c1)c1cc([N+](=O)[O-])cc([N+](=O)[O-])c1`: the IC50 was > 50 µM.

On to `O=C(O)c1cccc(C(=O)OCc2ccccc2)c1`, for which the half-maximal inhibitory concentration (IC50) is > 50 µM.

`O=C(O)c1cccc(C(=O)Oc2cccc3ccccc23)c1`: the concentration for half-maximal inhibition (IC50) was > 50 µM.

`O=C(O)c1cccc(C(=O)Nc2cccc3ccccc23)c1`: the 50% inhibitory concentration (IC50) is > 50 µM.

On to `O=C(O)c1cccc(C(=O)Nc2ccccc2)c1`, for which the IC50 is > 50 µM.
